The source of these data is US20090074885A1, “Reversible Hydrophobic Modification of Drugs for Improved Delivery to Cells” (Roche Madison Inc., priority 2003, published 2009).

Where two headings read alike, the source gives them in different places.

Series [1] can be described thus: Analysis of prodrug lability (rate of hydrolysis) of PI derivatives by fluorescent spectroscopy. It is filed as physicochemical. The following applies: extrapolated to pure buffer (100 mol % H2O). On the procedure: (§1) Analysis of prodrug lability. The prodrugs were tested for their rate of hydrolysis at pH 6.0, 7.2 and 8.5 using fluorescent spectroscopy. Lability studies for C12CON-PI and RRH-PI (rapidly reversible hydrophobic-PI) derivatives were conducted on a Cary Eclipse Fluorescence Spectrophotometer (Varian Inc.).
To solutions of PI and RRH-prodrugs of PI (7.48 μM in DMSO) were added various amounts of buffer (25 μL, 50 μL, and 100 μL of 20 mM Hepes buffer) at different pH. Upon cleavage of the hydrophobic modification and regeneration of PI, the fluorescence of the solution increased (λex=493 nm, λem=647 nm, excitation and emission slit width=5 nm, and emission PMT=600V) and was assayed as a function of time (20 min).
(§2) The resulting curves were normalized for intensity and fit to an exponential equation (Origin) to determine kdetermined for each solution. The kdetermined for each compound at appropriate pH were plotted against the mol % of H2O, and the best fit line was solved for kbuffer for 100 mol % H2O. These derived kbuffer values were used to determine the half-life of the prodrug in pure buffer according to the equation t1/2=1n2/k.

In series [2] the test system is SK-OV-3 (human ovarian carcinoma) cells. In words: In vitro cellular uptake by fluorescence microscopy, SK-OV-3. In kind it is cell-based. The following applies: fluorescein channel. The protocol: In Vitro cellular uptake of PI, RRH-PI compounds, and IV evaluated by fluorescence measurements. […] Adherent cells were plated at 2.5×10^5 cells/well on 6-well plates 24 h prior to testing. The growth media was removed from individual wells and the drug/prodrug was immediately added to the well with the mixing chamber. […] After 30 sec the drug solution was removed (aspirated) and 2 ml complete media was added to the cells. Experiments conducted with prodrug that was hydrolyzed prior to application to the cells followed a similar protocol, however the combined solution obtained after passing through the mixing chamber was collected and allowed to sit at ambient temperature for 5 min prior to application on the cells. Experiments conducted with Calcein AM (Invitrogen, 100 μl of 20 μM solution in complete media) followed a similar protocol for drug treatment (4 min treatment). Experiments conducted with SYTOX Green (Invitrogen) followed a similar protocol for drug treatment. […] Each condition was repeated in 2 or 3 wells, and the cells were immediately examined by microscopy. Fluorescent microscopy studies were conducted with a three laser LSM 510 confocal microscope, an Axiovert S100 fluorescent microscope, or an Axioplan2 fluorescent microscope (all Zeiss) equipped with filter sets for the rhodamine fluorescence channel (λex=BP 450/12, λem=LP 590 nm filter set) and the fluorescein fluorescent channel (λex=BP 546/90, λem=LP 515 nm filter set). Imaging was performed with an AxioCam digital camera (Zeiss), with AxioVision imaging software (V 4.5, Zeiss). For all images, identical camera settings and exposure times were used on comparative sample and control images. Images were processed with Photoshop (Adobe) for level and brightness using identical settings between sample and control images. For experiments conducted with IV, the cells were plated on 6-well plates with cover slips. […] Imaging was conducted on an Axioplan2 fluorescent microscope (Zeiss) and the same fields were imaged with phase contrast illumination, in the rhodamine fluorescence channel (λex=BP 450/12, λem=LP 590 nm filter set), and in the fluorescein fluorescent channel (λex=BP 546/90, λem=LP 515 nm filter set). IV was also mixed with PI and then delivered to SK-OV-3 cells, and the cells were imaged as before. In one protocol, equal amounts of IV (15.0 mM in DMSO) and PI (15.0 mM in DMSO) were combined and the resulting solution was added to cells via the mixing chamber. In a second method, PI was taken up in the ITG solution (0.748 mM) and mixed with IV (7.48 mM in DMSO) in the mixing chamber. […] The cells were imaged as before following 30 sec-4 min exposure to the drug solution.

For another series, the system named is SK-OV-3 cells. In words: Uptake of PI mixed with hydrophobic derivative (membrane damage test), SK-OV-3. It is filed as cell-based, human. The following applies: compared to cells treated with PI alone. On the procedure:
(§3) For experiments conducted with IV, the cells were plated on 6-well plates with cover slips. Following treatment as above, the cover slip was immediately removed and inverted over 1 drop of media for imaging, or the cells were incubated for 1 h prior to removal of the cover slip and imaging. Imaging was conducted on an Axioplan2 fluorescent microscope (Zeiss) and the same fields were imaged with phase contrast illumination, in the rhodamine fluorescence channel (λex=BP 450/12, λem=LP 590 nm filter set), and in the fluorescein fluorescent channel (λex=BP 546/90, λem=LP 515 nm filter set). IV was also mixed with PI and then delivered to SK-OV-3 cells, and the cells were imaged as before. In one protocol, equal amounts of IV (15.0 mM in DMSO) and PI (15.0 mM in DMSO) were combined and the resulting solution was added to cells via the mixing chamber. In a second method, PI was taken up in the ITG solution (0.748 mM) and mixed with IV (7.48 mM in DMSO) in the mixing chamber. Similarly, V (15 mM and 30 mM in DMSO) was mixed with PI and delivered to Hepa 1-6 and SK-OV-3 cells using the second method. The cells were imaged as before following 30 sec-4 min exposure to the drug solution.

Series [3] has as its system Hepa 1-6 (mouse hepatoma). In words: WST cytotoxicity assay, Hepa 1-6. It is filed as cell-based. The protocol:
(§4) Antiproliferative/Cytotoxic in vitro studies on PI, RRH-PI prodrugs, melphalan, and C12PMMA-melphalan. In vitro cytotoxicity testing was conducted on Hepa 1-6 (mouse hepatoma), SK-OV-3 (human ovarian carcinoma), and MC38 (mouse colon carcinoma) cells using a tetrazolium based assay (WST, Dojindo Molecular Technologies). For the WST assay, Hepa 1-6 (2.0×10^5 cells well), SK-OV-3 (7.5×10^5 cells well), and MC38 (8.5×10^5 cells well) were seeded in 1000 μL media into 12-well plates 24 h prior to testing (starting confluency ˜50%). Following removal of media, drug/prodrug solution was added drop-wise to quadruplicate wells, using the mixing chamber. Effective drug concentrations were calculated from the amount of drug added in the total volume of OS and aqueous solution. Following 4 min of drug solution exposure, the solution was removed, and 1000 μl fresh complete media was added to each well. After the cells were incubated for 24-48 h, WST-1 (20 μl of a 5 mM solution in PBS) and N-methylphenazonium methyl sulfate (PMS, 20 μl 0.2 mM solution in PBS) were added and the cells were incubated for 1-4 h. For testing with MC38 cells, the amounts of WST-1 and PMS were doubled. Following incubation, 100 μl of sample was transferred to quadruplicate wells on a 96-well plate, and the absorbance (438 nm) values were measured on a SPECTRAmax Plus^384 microplate spectrophotometer (Molecular Devices Corporation). Data represents the mean A438 values of 16 wells with standard deviation, corrected for media contribution, and normalized against cells in media with no drug/prodrug treatment (reported as % cell viability±standard deviation).
(§5) The concentration of drug (μM) that is required for 50% inhibition in vitro is reported as the IC50. The reported values were calculated from the best fit line (Excel) for a plot of effective drug concentration against % cell viability, and include the r^2 value. The reported IC50 values for multiple RRH-PI plots are reported as IC50 (μM)±standard deviation.

The test system of series [4] is SK-OV-3 (human ovarian carcinoma). Put plainly: WST cytotoxicity assay, SK-OV-3. It is filed as cell-based. On the procedure:
as §4, §5

Series [5] is described as follows: Dynamic light scattering particle size. In kind it is physicochemical. The following applies: following mixing with ITG through mixing chamber. On the procedure: (§6) Light Scattering analysis of prodrugs. Particle size was determined by dynamic light scattering on a Zeta Plus (Zeta Potential Analyzer, Brookhaven Instrument Corporation, λ 533 nm, 90°), and results are reported as the size of the most abundant particle (range of particle sizes, counts sec^−1). Fluorescent compounds were also analyzed for particles qualitatively, by measuring for light scattering on a Cary Eclipse Fluorescence Spectrophotometer (Varian Inc.), with λex=λem (300-800 nm, 90° detection). The presence of particles in solution results in an increase in signal detection at 90°. PI and RRH-PI prodrugs were 7.48 mM in DMSO. Melphalan and V were 50 mM in DMSO. The drug/prodrug solutions were mixed and diluted with ITG through the mixing chamber (40 μl OS and 400 μl ITG), and analyzed immediately.

A short description of series [6]: Qualitative 90° light scattering for particles. The following applies: relative to ITG or PI in ITG. In kind it is physicochemical. The protocol: as §6
Series [7] concerns MC38 (mouse colon carcinoma). Put plainly: WST cytotoxicity assay, MC38. It is filed as cell-based. The following applies: MC38, 4 min drug exposure, WST 48 h after. On the procedure: as §4, with “For testing with MC38 cells, the amounts of WST-1 and PMS were doubled.” left out, “Data represents the mean A438 values of 16 wells with standard deviation, corrected for media contribution, and normalized against cells in media with no drug/prodrug treatment (reported as % cell viability±standard deviation).” left out

A short description of series [8]: Hydrolysis of V monitored by reaction of liberated melphalan with fluorescamine. The following applies: pH 6.0; for Half-life: extrapolated to pure buffer (100 mol % H2O). It is filed as physicochemical. On the procedure: as §1
Alternatively, to solutions of fluorescamine (857 μM in DMSO) were added various amounts of buffer (20 μL, 30 μL, 40 μL, 50 μL, and 70 μL of 100 mM MES buffer, pH 6.0) followed by melphalan or V (249 μM final concentration in DMSO). The fluorescence of the solution (λex=380 nm, λem=464 nm, excitation and emission slit width=5 nm, and emission PMT=600V) was assayed as a function of time (40 min). At each buffer concentration the reaction of fluorescamine and melphalan was more rapid than hydrolytic breakdown of V.
as §2

The next series concerns Hepa 1-6. In words: Uptake of PI mixed with hydrophobic derivative (membrane damage test), Hepa 1-6. It is filed as cell-based, mouse. The following applies: compared to PI alone. On the procedure: as §3
Series [9] can be described thus: Trypan blue assay for membrane disruption. In kind it is cell-based.
In series [10] the test system is B16 murine melanoma cells. In words: CellTiter-Glo luminescent cell viability assay. In kind it is cell-based. The following applies: 10 min drug solution exposure, 3 h in media, 24 h culture; up to 112 μl delivery solution per well. On the procedure: Cells were seeded at 1×10^4 cells/well in 100 μl of media into 96-well plates on day 0 and cultured for 24 h prior to addition of drug. […] Following 10 min of drug solution exposure, 100 μl of fresh media was added to each well and incubated for 3 h. Drug-containing media was replaced with 100 μl of fresh media and cultured for and additional 24 h.

The mark [11] stands for this setting: Hepa 1-6, 4 min drug exposure, WST 48 h after, read-out: Mean IC50.
Setting [12] is: SK-OV-3, 4 min drug exposure, WST 48 h after, read-out: Mean IC50.

As to `CCCCCCCCCCCC(=O)Nc1ccc2c(c1)c(-c1ccccc1)[n+](CCC[N+](C)(CC)CC)c1cc(NC(=O)CCCCCCCCCCC)ccc21.[I-].[I-]` [IV, 3,8-bis-undecylcarbanylamino 5-(3,3-diethyl-3-methylammoniumpropyl) 6-phenyl phenanthridinium diiodide], the Half-life entry in series [1] (pH 7.2) and in [1] (pH 8.5) was “non-labile” in each case. Further, the fluorescent signal localisation entry in [2] (after one hour incubation) was “more defined punctate signal”; in series [2] (immediately following application), “diffuse signal was observed along the cell membrane”. Also, the “nuclear PI staining when delivered together with PI” value in the series with SK-OV-3 cells was “no increased levels of nuclear PI staining detected”. The IC50 worked out at 585 µM in series [3] (Hepa 1-6, 4 min drug exposure, WST 24 h after, read-out: Mean IC50); 429 µM in series [3] (setting [11]); 455 µM in [4] (SK-OV-3, 4 min drug exposure, WST 24 h after, read-out: Mean IC50); 342 µM in [4] (setting [12]). The “range of particle sizes” value in series [5] is 28-42 nm. In addition, in [5], the “size of the most abundant particle” value is recorded as 36 nm. The “increase in 90° light scattering signal intensity” value in [6] was found to be 15 fold.

In the case of `N[C@@H](Cc1ccc(N(CCCl)CCCl)cc1)C(=O)O` [Melphalan, reference compound], the viability at 1458 µM in [3] (Mus musculus, Hepa1-6, 48 h, read-out: cell viability at highest concentration tested, Hepa 1-6, 48 h, 1458 μM) came to 81%; in series [4] (Homo sapiens, SK-OV-3, 48 h, read-out: cell viability at highest concentration tested, SK-OV-3, 48 h, 1458 μM), 70 ± 11%. The IC50 in series [3] (Mus musculus, Hepa1-6, read-out: Mean IC50) was over 1460 µM; in [4] (Homo sapiens, SK-OV-3, read-out: Mean IC50), over 1460 µM; in series [7] (Mus musculus, MC-38), 1180 µM.

Consider `CCCCCCCCCCCCNC(=O)CCC(=CCC(=O)O)C(=O)NC(Cc1ccc(N(CCCl)CCCl)cc1)C(=O)O` (centres unmarked) [V, 3,9-diaza, 2-[4-{bis(2-chloroethyl)amino}phenylmethyl], 5-(2-carboxylethylidine), 4,8-dioxo uncosanoic acid], for which the k result in series [8] is recorded as “(1.62 min^−1)”. The Half-life in series [8] was 28 s; in series [8] (listed as C12PMMA-Melphalan (V)), 25.7 s. Further, the “nuclear PI staining when delivered together with PI” value with SK-OV-3 cells and in the series on Hepa 1-6 was “no increased levels of nuclear PI staining were observed” in each case. Further, the generalized membrane disruption result in series [9] was “neither V or methyl aniline silylated with chloro(dimethyl)octadecylsilane caused generalized membrane disruption”. Besides, the figures for the IC50 in series [3] (setting [11]), in series [4] (setting [12]) and in series [7] were 330 µM, 384 µM and 304 µM, respectively. Also, the “range of particle sizes” value in series [5] is given as 36-66 nm. Besides, the “size of the most abundant particle” value in [5] is on record as 36 nm.

With `CCCCCCCCCCCCCCCCCC[Si](C)(C)N.CCCCCCCCCCCCCCCCCC[Si](C)(C)N.[Cl][Pt][Cl]` [BDMODS-CP, Cl2Pt(NH2Si(CH3)2C18H37)2], the “antiproliferative/cytotoxic effect (RLU)” value in series [10] was “complete cytotoxic effect”.
